Where two headings read alike, the source gives them in different places. Square brackets hold non-standard residues; d marks the D form. Peptide text beside a SMILES is read from it.
Experiments:
calmodulin = calmodulin (Homo sapiens, UniProt P0DP23); test: calcium-dependent phosphodiesterase assay (calmodulin activity); type: biochemical; settings: for SPECIFICITY: comparison of IC50 for phosphodiesterase with IC50 for calmodulin; for calmodulin inhibitory activity, in words: (L)-amino acid peptides of Table II
Procedure: In the calcium dependent phosphodiesterase assay, calmodulin can be assayed by its ability to stimulate phosphodiesterase activity as determined by a two-step assay procedure illustrated by reactions (1) and (2) below. [drawing 1]
During the first step of the assay cyclic adenosine 3'5'-monophosphate (cAMP) is incubated with calcium-activated phosphodiesterase (Cal-PDE), which hydrolyses the 3'bond producing adenosine 5'-monophosphate (5'-AMP). During the second step, 5'-AMP is quantitatively converted into adenosine and inorganic phosphate (Pi) through the action of a 5-nucleotidase. The reaction is followed by the measurement of the Pi formed by reading the absorbance at 660 nm after reacting with ammonium molybdate. The amount of Pi formed is directly related to the phosphodiesterase activity which depends on the level of activation by calmodulin.
To sample assay tubes were added the following components: assay buffer, 25 ul; CaCl2, 5 ul; 5'-nucleotidase, 7.5 ul (stock solution is 10 units/ml); calmodulin 5 units; calmodulin inhibitor peptides to obtain the desired final concentration of 50 μM. The volume was then made up to 200 ul with water. Control blanks were prepared replacing the peptides with water. The added components were thoroughly mixed and the tubes incubated at 30° C. for 10 min. […] The samples were centrifuged to remove the protein precipitate and the 50 ul of the supernatant was withdrawn for phosphate measurement. […] The absorbance of the solution were read at 660 nm using water as a blank, identified as control "Calmo."
The two controls used in the assay, one without and one with calmodulin, as indicated in FIG. 1 and Table I were as follows,: (1) PDE:
These three controls were used in the calcium-dependent phosphodiesterase assay for reproducibility of the assay.
In addition to the calcium-dependent phosphodiesterase assay data, IC50 values were determined for many of the peptides. The assay carried out for the determination in the IC50 values differed from the above screening assay by the concentration of the peptides being tested.
(3) TFP: trifluoperazine; and (4) Calmidasolium: (1-[bis-(4-chlorophenyl)methyl]-3[-2-(2,4-dichlorophenyl)-2[(2,4-dichlorophenyl)methoxy]-ethyl]-1H-imidazolium chloride. The IC50 values were calculated using sigmoidal curve software (Graphpad, ISI; San Diego, Calif.) using the % inhibition at different mixture concentrations (see protocol for determination of % inhibition).
The (L)-amino acid counterpart for five (5) of the all (D)-amino acid peptides identified from the PS-SCL were synthesized in order to study the stereoselectivity of the inhibition.

phosphodiesterase = test: calcium-dependent phosphodiesterase assay in the absence of calmodulin; type: biochemical; settings: Table III
Procedure: To sample assay tubes were added the following components: assay buffer, 25 ul; CaCl2, 5 ul; 5'-nucleotidase, 7.5 ul (stock solution is 10 units/ml); calmodulin 5 units; calmodulin inhibitor peptides to obtain the desired final concentration of 50 μM. The volume was then made up to 200 ul with water. Control blanks were prepared replacing the peptides with water. The added components were thoroughly mixed and the tubes incubated at 30° C. for 10 min. Then, 25 ul of cAMP at 10.8 mM was added and incubated for 90 min at 30° C. The reaction was stopped by the addition of 50 ul of 55% trichloroacetic acid (TCA). The samples were centrifuged to remove the protein precipitate and the 50 ul of the supernatant was withdrawn for phosphate measurement. To the supernatant aliquot, 50 ul ammonium molybdate (0.55% in 1.1 N sulfuric acid) was added, followed by the addition of 5 ul of reducing agent (24 g sodium bisulfite, 2.4 g sodium sulfite, 0.5 g of 1-amino-2-naphthol-4-sulfonic acid in 200 ml of water), and the contents were mixed by vortexing. The absorbance of the solution were read at 660 nm using water as a blank, identified as control "Calmo."
As described above, one of the undesirable biological effects of existing calmodulin inhibitors is their non-specific binding to other proteins and the like. Therefore, the specificity of the instant inhibitory peptides for calmodulin was examined. The specificity was determined using the calcium-dependent phosphodiesterase assay described in Example I. The assay was carried out for the determination of IC50 values in the presence of calmodulin (IC50 value for calmodulin) and in the absence of calmodulin (IC50 for phosphodiesterase), the latter of which provides the effect of the inhibitory peptides on the phosphodiesterase.

rat liver cells = test: in vivo rat model: DNA synthesis of rat liver cells after partial hepatectomy; settings: intravenous injection 5 hours after partial hepatectomy, measured 24 hours post hepatectomy
Source text: The effect that calmodulin inhibitors have on DNA synthesis were also studied in vivo in a rat model. Rat liver cells are a useful in vivo system for studying synchronized cells and the cell cycle. By partial hepatectomy, the hepatocyte quiescent cells present in normal adult rat liver can be stimulated to enter the replicative cell cycle and the effect of inhibitors on the cycle analyzed. This example provides the effect of the subject calmodulin inhibitory peptides on the DNA synthesis of rat liver cells in partial hepatectomy stage following intra venal injection of the peptides.
Male Sprague-Dawley rats ([…]; 2 rats per peptide or control) were fasted overnight. Partial hepatectomies were carried out under Ketolar anesthesia (Parke-Davis; Ann Arbor, Mich.), following the procedure described by Higgins and Anderson in Arch. Pathol., 12:186-202 (1931), which is incorporated herein by reference. […] DNA synthesis was assessed by measuring the radioactivity incorporated into DNA following an intraperitoneal injection (0.5 mCi/g body weight) of [^3 H] thymidine 1 hr prior to killing the rat and at 23 hours post hepatectomy. […] The liver tissue was homogenized in 10% trifluoroacetic acid at 4° C. and the DNA extracted and its radioactivity measured following the procedure described by Burton, Biochem. J., 62:315-320 (1956), which is incorporated herein by reference. […]

[1] = tested on: normal rat kidney (NRK) cells; test: DNA synthesis ([3H]-thymidine incorporation) in cell culture; type: cell-based; settings: added at 5 hr
Procedure: Following the methods described in Lopez-Girona et al., Cell Calcium, 18:30-40 (1995), which is incorporated herein by reference, the effect of calmodulin inhibitory peptides on DNA synthesis was investigated. Specifically, peptides were added to culture media and assessed for their ability to inhibit the progression of normal rat kidney (NRK) cells into the S phase of the cell cycle; the DNA synthesis phase into the cell growth cycle. Such inhibition has been shown for existing anti-calmodulin drugs such as W13.
NRK cells were made quiescent by growing them to confluence in Dulbecco's minimum essential medium supplemented with 5% fetal calf serum (FCS), and then kept for 3-4 days in the same medium but with only 0.5% FCS. To allow them to re-enter the cell cycle, quiescent cells were trypsinized and subcultured at a lower density in fresh medium supplemented with 5% FCS.
DNA synthesis was analyzed by the measurement of [^3 H]-thymidine into whole cell DNA. NRK cells (10^5 per 35 mm plate) were pulse labeled for 1 hr with [methyl-^3 H]-thymidine (5 Ci/mmol) at 4 μCi/ml in Dulbecco's minimum essential medium supplemented with 5% FCS. Precipitation and solubilization of DNA was carried out as described in Cripps-Wolfman et al., J. Biol. Chem., 264:19478-19486 (1989), which is incorporated herein by reference.
The NRK cells stimulated to proliferate by addition of 5% FCS enter synchronously into the cell cycle and start the S phase after 12 hr reaching a maximum between 18 to 20 hr. The peptides were added at 5 hr (time at which the cells have already reenter the G1 phase). […] Similar results were found between the (D)-amino acid peptides and their (L)-counterpart.

NRK cells = test: long term stability: number of NRK cells at 48 hr after activation; type: cell-based, rat; settings: added at 5 hr, counted 48 hr after activation
Source text: The similar activity found for the (L)-amino acid peptides and (D)-amino acid peptides indicate that the inhibition of calmodulin occurs rapidly following the addition of the inhibitory peptides. The peptides' long term stability was then studied by adding Ac-(D)Leu-(D)Trp-(D)Arg-(D)Ile-(D)Leu-(D)Trp-NH2, Ac-Leu-Trp-Arg-Ile-Leu-Trp-NH2 (SEQ ID No. 48), W13 and W12 at 5 hr following the reentry of the NRK cells into the cell cycle and measuring the number of cells at 48 hr after activation.

[2] = Table I, assayed at 75, 50 and 12.5 μM, average of repeated assays, read-out: Average IC50
[3] = Table III, in the presence of calmodulin, read-out: IC50 (μM) for calmodulin
[4] = Table II, (L)-amino acid peptides, concentrations 0.2 to 50.0 μM, read-out: IC50

Structure (SMILES)	IC50 (calmodulin; [2]) [µM]	IC50 (calmodulin; [3]) [µM]	SPECIFICITY (calmodulin)	IC50 (phosphodiesterase) [µM]	number of cells relative to control cells (NRK cells)	other results
CC[C@@H](C)[C@@H](NC(=O)[C@@H](Cc1c[nH]c2ccccc12)NC(=O)[C@@H](CC(C)C)NC(C)=O)C(=O)N[C@@H](C(=O)N[C@H](CC(C)C)C(=O)N[C@H](Cc1c[nH]c2ccccc12)C(N)=O)[C@H](C)CC [Ac-(D)Leu-(D)Trp-(D)Ile-(D)Ile-(D)Leu-(D)Trp-NH2] (Ac-[dL][dW][dI][dI][dL][dW]-NH2)	36	29	–	–	–	IC50 (μM) for phosphodiesterase (phosphodiesterase): activation
CC[C@@H](C)[C@@H](NC(=O)[C@@H](CCCNC(=N)N)NC(=O)[C@@H](Cc1c[nH]c2ccccc12)NC(=O)[C@@H](CC(C)C)NC(C)=O)C(=O)N[C@H](Cc1c[nH]cn1)C(=O)N[C@H](Cc1c[nH]c2ccccc12)C(N)=O [Ac-(D)Leu-(D)Trp-(D)Arg-(D)Ile-(D)His-(D)Trp-NH2] (Ac-[dL][dW][dR][dI][dH][dW]-NH2)	0.96	1.2	69	84	–	–
CC(=O)N[C@H](CC(C)C)C(=O)N[C@H](Cc1c[nH]c2ccccc12)C(=O)N[C@H](CCCNC(=N)N)C(=O)N[C@H](Cc1c[nH]cn1)C(=O)N[C@H](CC(C)C)C(=O)N[C@H](Cc1c[nH]c2ccccc12)C(N)=O [Ac-(D)Leu-(D)Trp-(D)Arg-(D)His-(D)Leu-(D)Trp-NH2] (Ac-[dL][dW][dR][dH][dL][dW]-NH2)	5.9	6.7	10	68	–	–
CC[C@@H](C)[C@@H](NC(=O)[C@@H](Cc1c[nH]c2ccccc12)NC(=O)[C@@H](CC(C)C)NC(C)=O)C(=O)N[C@H](Cc1c[nH]cn1)C(=O)N[C@H](CC(C)C)C(=O)N[C@H](Cc1c[nH]c2ccccc12)C(N)=O [Ac-(D)Leu-(D)Trp-(D)Ile-(D)His-(D)Leu-(D)Trp-NH2] (Ac-[dL][dW][dI][dH][dL][dW]-NH2)	3.6	–	12	42	–	–
CC[C@@H](C)[C@@H](NC(=O)[C@@H](CCC(N)=O)NC(=O)[C@@H](CC(C)C)NC(C)=O)C(=O)N[C@H](Cc1c[nH]cn1)C(=O)N[C@H](CC(C)C)C(=O)N[C@H](CCCNC(=N)N)C(N)=O [Ac-(D)Leu-(D)Gln-(D)Ile-(D)His-(D)Leu-(D)Arg-NH2] (Ac-[dL][dQ][dI][dH][dL][dR]-NH2)	70	43	2.4	104	–	% DNA SYNTHESIS (rat liver cells): 100%; % DNA SYNTHESIS ([1]; 7.5 μM): 100%; % DNA SYNTHESIS ([1]; 15 μM): 84%
NCCCCNS(=O)(=O)c1ccc2c(Cl)cccc2c1 [Peptide W13, N-(4-aminobutyl)-5-chloro-2-naphtalenesulfonamide, reference compound]	93	–	–	–	significantly lower number of cells	% DNA SYNTHESIS ([1]; 30 μM): 60%
NCCCCNS(=O)(=O)c1ccc2ccccc2c1 [Peptide W12, reference compound]	–	–	–	–	the same number of cells	% DNA SYNTHESIS ([1]; 30 μM): 100%
CC[C@@H](C)[C@@H](NC(=O)[C@@H](CCCNC(=N)N)NC(=O)[C@@H](Cc1c[nH]c2ccccc12)NC(=O)[C@@H](CC(C)C)NC(C)=O)C(=O)N[C@H](CC(C)C)C(=O)N[C@H](CCCNC(=N)N)C(N)=O [Ac-(D)Leu-(D)Trp-(D)Arg-(D)Ile-(D)Leu-(D)Arg-NH2] (Ac-[dL][dW][dR][dI][dL][dR]-NH2)	3.9	4.8	> 42	> 200	–	–
CC[C@H](C)[C@H](NC(=O)[C@H](CCCNC(=N)N)NC(=O)[C@H](Cc1c[nH]c2ccccc12)NC(=O)[C@H](CC(C)C)NC(C)=O)C(=O)N[C@@H](CC(C)C)C(=O)N[C@@H](CCCNC(=N)N)C(N)=O [Ac-Leu-Trp-Arg-Ile-Leu-Arg-NH2] (Ac-LWRILR-NH2)	–	–	> 69	> 200	–	calmodulin inhibitory activity, in words (calmodulin): especially high activity; IC50 (calmodulin; [4]): 2.89 µM
CC[C@H](C)[C@H](NC(=O)[C@H](CCCNC(=N)N)NC(=O)[C@H](Cc1c[nH]c2ccccc12)NC(=O)[C@H](CC(C)C)NC(C)=O)C(=O)N[C@@H](CC(C)C)C(=O)N[C@@H](Cc1c[nH]c2ccccc12)C(N)=O [Ac-Leu-Trp-Arg-Ile-Leu-Trp-NH2] (Ac-LWRILW-NH2)	–	–	> 227	> 200	the same number of cells	calmodulin inhibitory activity, in words (calmodulin): especially high activity; IC50 (calmodulin; [4]): 0.88 µM

Reference: patent publication US5840697A, “Peptide inhibitors of calmodulin” (Torrey Pines Institute for Molecular Studies, priority 1996, dated 1998)
